Data on five molecules can be found in patent publication US11167005B2, “Peptides for treating Sjogren's syndrome” (YEDA RESEARCH AND DEVELOPMENT CO. LTD., priority 2017, dated 2021).

Entries after “also recorded” stand apart in the source; their conditions may differ.

Data set [1] has as its system FOXP3. Put plainly: FOXP3 gene expression in PBMCs of SS patients, real-time RT-PCR. Type of data set: cell-based, human. As for the experimental part:
(§1) 5×10^6/mL peripheral blood mononuclear cells (PBMCs) obtained from blood samples of rheumatoid arthritis (RA) patients, anti-phospholipid syndrome patients (APS) and SS patients were incubated in-vitro in: medium alone, medium containing 25 μg/mL hCDR1 (SEQ ID NO: 1), or medium containing 25 μg/mL of control scrambled peptide (SEQ ID NO: 2). Following 48 hours of incubation, cells were collected and mRNA was prepared from all samples. The expression of various genes was determined using real-time RT-PCR. The control peptide has the same amino acid residues as SEQ ID NO:1 in a scrambled order.
(§2) The effect of IDO inhibition on the expression of the suppressive master gene FOXP3, that is expressed on functional T regulatory cells, was tested.
For orientation: Quantitative PCR measures a nucleic acid by following its amplification.

For data set [2], the system named is IDO. Put plainly: IDO gene expression in PBMCs of pSS patients, real-time RT-PCR. Type of data set: cell-based, human. To be noted: for IDO gene expression on addition of recombinant cytokine to cultures of PBMCs with hCDR1: compared with hCDR1 alone (FIG. 3C). How it is done: Following 48 hours of incubation, cells were collected and mRNA was prepared from all samples. The expression of various genes was determined using real-time RT-PCR.
Thereafter, RNA was extracted from the cells and gene expression was determined by real-time RT-PCR.
Since both IL-1β and IFN-α were reported to increase the production and expression of IDO, the effects of the addition of recombinant IL-1β or IFN-α to cultures of PBMCs with hCDR1 on IDO gene expression were further tested.
as §2

In data set [3] the test system is TGF-β. The experiment in a line: TGF-β gene expression in PBMCs of SS patients, real-time RT-PCR. It counts as cell-based, human. To be noted: 48 hours; for expression of the gene for TGF-β: PBMCs isolated from SS patients, p=0.012 vs medium alone, p=0.028 vs control peptide. How it is done:
as §1
PBMCs of patients with pSS were isolated and incubated in vitro for 48 hours in the presence of medium, hCDR1 (SEQ ID NO: 1) or a control scrambled peptide (SEQ ID NO: 2). Thereafter, RNA was extracted from the cells and gene expression was determined by real-time RT-PCR.

Data set [4] concerns IL-1β. Put plainly: IL-1β gene expression in PBMCs of SS patients, real-time RT-PCR. It counts as cell-based, human. To be noted: 25 μg/mL, 48 hours. As for the experimental part: as §1
Data set [5] concerns DNA. To be noted: background statement; cited from earlier work.
In data set [6] the test system is SLE in murine models. To be noted: cited from earlier work.
The subject of data set [7] is MX1. Put plainly: MX1 gene expression in PBMCs of SS patients, real-time RT-PCR. Type of data set: cell-based, human. To be noted: 25 μg/mL, 48 hours. As for the experimental part: as §1
Data set [8] deals with anti-DNA antibodies. To be noted: background statement; cited from earlier work.
Data set [9] relates to TNF-α. Put plainly: TNF-α gene expression in PBMCs of SS patients, real-time RT-PCR. Type of data set: cell-based, human. To be noted: 25 μg/mL, 48 hours. How it is done: as §1
The test system of data set [10] is IDO. Put plainly: IDO gene expression in PBMCs of subjects with RA. Type of data set: cell-based, human. To be noted: 48 hours (FIG. 3B).
In data set [11] the test system is pathogenic cytokines. Put plainly: Gene expression of pathogenic cytokines in PBMCs of anti-phospholipid syndrome patients. Type of data set: cell-based, human. To be noted: 25 μg/mL, 48 hours, vs medium alone or control peptide (FIG. 1B). How it is done:
as §1

The test system of data set [12] is BLyS. The experiment in a line: BLyS gene expression in PBMCs of SS patients, real-time RT-PCR. To be noted: 25 μg/mL, 48 hours. Type of data set: cell-based, human. How it is done:
as §1

The conditions of data set [13]: Phase Ia and Ib clinical studies, humans; cited from earlier work.
Data set [14] relates to pathogenic cytokines. Put plainly: Gene expression of pathogenic cytokines in PBMCs of rheumatoid arthritis patients. To be noted: 25 μg/mL, 48 hours, vs medium alone or control peptide (FIG. 1A). It counts as cell-based, human. How it is done: as §1
The test system of data set [15] is SLE patients. To be noted: Phase II clinical trial in SLE patients (Urowitz et al. 2015); cited from earlier work.
Where [16] appears, read: PBMCs of pSS patients, compared with hCDR1 alone (FIG. 3D).
Where [17] appears, read: vs medium alone and control scrambled peptide (FIG. 2).
Where [18] appears, read: FOXP3 gene, PBMCs of SS patients, 25 μg/mL, 48 hours.
Where [19] appears, read: IDO gene, PBMCs of SS patients, 48 hours.
Where [20] appears, read: TGF-β gene, PBMCs of SS patients.

On to `Cn1cc(C[C@@H](N)C(=O)O)c2ccccc21` [1 mT, 1-methyl-D-tryptophan, reference compound], for which the “FOXP3 expression on addition of 1 mT to PBMC cultures with hCDR1” value in [1] (setting [16]) was “significant down-regulation”. For the same molecule, the “IDO gene expression on addition of 1 mT to PBMC cultures with hCDR1” value in data set [2] (setting [16]) is “significant decrease”.
Consider “SKGIPQYGGWPWEGWRYEI [control scrambled peptide, Control peptide, reference compound]”, for which the “expression of the gene for TGF-β” value in [3] was “not”.
Turning to IFN-α, in data set [2], the “IDO gene expression on addition of recombinant cytokine to cultures of PBMCs with hCDR1” value is given as “increased IDO gene expression to levels much higher”.
On the same count and under the same terms, the same measure for “IL-1β: recombinant IL-1β added to cultures of PBMCs with hCDR1”: “increased IDO gene expression to levels much higher”.
Consider “GYYWSWIRQPPGKGEEWIG [hCDR1, 19-amino-acid synthetic peptide based on CDR1 of the heavy chain of human anti-DNA mAb 16/6Id]”, for which the “gene expression of IL-1β” value in data set [4] (setting [17]) is listed as “significant reduction; also recorded: significant effects”. For the same molecule, the “Modulation by hCDR1” value is reported as “Downregulation” in data set [4] (IL-1β gene); “Upregulation” in data set [1] (setting [18]); “Downregulation” in [7] (MX1 gene); “Upregulation” in data set [2] (setting [19]); “Downregulation” in [9] (TNF-α gene); “Downregulation” in [12] (BLyS gene). In addition, the “Modulation by hCDR1” value in data set [3] (setting [20]) is “Upregulation”. In addition, the “Percent responders exhibiting gene expression modulation, hCDR1 compared to control peptide” value was “(61.5%)” in data set [4] (IL-1β gene); “(58%)” in data set [1] (setting [18]); “(77%)” in [7] (MX1 gene); “(69%)” in data set [2] (setting [19]); “(61.5%)” in [9] (TNF-α gene); “(50%)” in data set [12] (BLyS gene). The “Percent responders exhibiting gene expression modulation, hCDR1 compared to control peptide” value in data set [3] (setting [20]) is listed as “(72.7%)”. In addition, the “Percent responders exhibiting gene expression modulation, hCDR1 compared to medium” value was “(86%)” in data set [4] (IL-1β gene); “(75%)” in data set [1] (setting [18]); “(77%)” in [7] (MX1 gene); “(81%)” in data set [2] (setting [19]); “(78.5%)” in data set [9] (TNF-α gene); “(70.5%)” in data set [12] (BLyS gene). In addition, in data set [3] (setting [20]), the “Percent responders exhibiting gene expression modulation, hCDR1 compared to medium” value is “(70.5%)”. Further, the “Responders/Total, hCDR1 compared to control peptide” value was 8/13 in data set [4] (IL-1β gene); 7/12 in [1] (setting [18]); 10/13 in data set [7] (MX1 gene); 9/13 in [2] (setting [19]); 8/13 in data set [9] (TNF-α gene); 6/12 in data set [12] (BLyS gene). For the same molecule, the “Responders/Total, hCDR1 compared to control peptide” value in data set [3] (setting [20]) is on record as 8/11. For the same molecule, the “Responders/Total, hCDR1 compared to medium” value in data set [4] (IL-1β gene) is on record as 12/14; in data set [1] (setting [18]), 12/16; in data set [7] (MX1 gene), 10/13; in data set [2] (setting [19]), 13/16; in data set [9] (TNF-α gene) it was 11/14; in data set [12] (BLyS gene), 12/17. Moreover, the “Responders/Total, hCDR1 compared to medium” value in [3] (setting [20]) is recorded as 12/17. Besides, the “binding to DNA” value in [5] is given as “does not bind”. For the same molecule, in data set [6], the “serological and clinical disease manifestations of SLE” value was “ameliorate serological and clinical disease manifestations”. For the same molecule, the “gene expression of the FOXP3 gene” value in data set [1] (PBMCs of SS patients, 25 μg/mL, 48 hours, vs medium alone and control scrambled peptide (FIG. 2)) is recorded as “significant increase”. The “gene expression of MX1” value in data set [7] (setting [17]) is “significant reduction; also recorded: significant effects”. Further, the “binding to anti-DNA antibodies” value in data set [8] is “does not bind”. Moreover, the “expression of the IDO gene” value in data set [2] (PBMCs of patients with pSS, 48 hours, vs medium alone or control peptide (FIG. 3A)) was “up-regulated significantly”. Further, the “gene expression of TNF-α” value in data set [9] (setting [17]) is on record as “significant reduction; also recorded: significant effects”. Moreover, the “expression of IDO” value in data set [10] is given as “did not affect significantly”. Besides, the “gene expression of pathogenic cytokines” value in data set [11] and in [14] was “No significant effects; also recorded: non-significant effects” each time. Besides, in data set [12] (setting [17]), the “gene expression of the BLyS gene” value is reported as “significant reduction”. Further, the safety and tolerability result in data set [13] is “safe and well tolerated”. Further, in data set [15], the “effects on several parameters” value is on record as “beneficial effects”. The “expression of the gene for TGF-β” value in data set [3] is listed as “significantly up-regulated”.
